From the supplement of paper PMC10331698
± gives the standard deviation of the averaged measurements.

Experiments:
Experiment in all cases: level (log10 ratio to DMSO vehicle control); higher = higher biomarker level / cell amount than vehicle control
Conditions in all cases: in DMSO
[1] = compound: OCC(F)(F)OC(F)(F)C(F)(F)OC(F)(F)CO [1H,1H,8H,8H-Perfluoro-3,6-dioxaoctane-1,8-diol]
Experimental: (§1)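 BioMAP Diversity Plus panel of 12 human primary cell co-culture systems (3C, 4H, LPS, SAg, BT, BF4T, BE3C, CASM3C, HDF3CGF, KF3CT, MyoF, Mphg). Compounds were added 1 h before stimulation and left for 24 h (MyoF 48 h; BT 72 h for soluble read-outs or 6 d for IgG). Biomarkers were read by ELISA, cytotoxicity by SRB, PBMC viability and proliferation by Alamar Blue. Each well value was divided by the mean of 8 DMSO control wells on the same plate and log10 transformed; duplicate blinded samples were tested at 4 concentrations.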

[2] = compound: NCC(F)(F)C(F)(F)C(F)(F)C(F)(F)C(F)(F)C(F)(F)C(F)(F)F [1H,1H-Perfluorooctylamine]
Experimental: as §1

[3] = compound: O=C(O)C(F)(F)OC(F)(F)C(F)(F)OC(F)(F)C(=O)O [Perfluoro-3,6-dioxaoctane-1,8-dioic acid]
Experimental: as §1

Perfluoropropanoic acid = compound: O=C(O)C(F)(F)C(F)(F)F [Perfluoropropanoic acid]
Experimental: as §1

[4] = compound: CCN(CCO)S(=O)(=O)C(F)(F)C(F)(F)C(F)(F)C(F)(F)C(F)(F)C(F)(F)C(F)(F)C(F)(F)F [N-Ethyl-N-(2-hydroxyethyl)perfluorooctanesulfonamide]
Experimental: as §1

Perfluorobutanoic acid = compound: O=C(O)C(F)(F)C(F)(F)C(F)(F)F [Perfluorobutanoic acid]
Experimental: as §1

[5] = compound: C=CC(F)(F)C(F)(F)C(F)(F)C(F)(F)C(F)(F)C(F)(F)C(F)(F)C(F)(F)C=C [1,8-Divinylperfluorooctane]
Experimental: as §1

Test System | level (log10) ([1]; 6700 nM) | level (log10) ([1]; 20000 nM) | level (log10) ([1]; 60000 nM) | level (log10) ([2]; 6700 nM) | level (log10) ([2]; 20000 nM) | level (log10) ([2]; 60000 nM) | level (log10) ([3]; 6700 nM) | level (log10) ([3]; 20000 nM) | level (log10) ([3]; 60000 nM) | level (log10) (Perfluoropropanoic acid; 6700 nM) | level (log10) (Perfluoropropanoic acid; 20000 nM) | level (log10) (Perfluoropropanoic acid; 60000 nM) | level (log10) ([4]; 6700 nM) | level (log10) ([4]; 20000 nM) | level (log10) (Perfluorobutanoic acid; 6700 nM) | level (log10) (Perfluorobutanoic acid; 20000 nM) | level (log10) (Perfluorobutanoic acid; 60000 nM) | level (log10) ([5]; 6700 nM) | level (log10) ([5]; 20000 nM)
KF3CT:CCL2/MCP-1 | -0.0075 ± 0.026 | -0.022 ± 0.011 | 0.0235 ± 0.061 | -0.0055 ± 0.043 | -0.021 ± 0.013 | 0.0045 ± 0.0078 | -0.0135 ± 0.016 | -0.011 ± 0.0057 | -0.0045 ± 0.013 | -0.0395 ± 0.0078 | -0.018 ± 0.028 | 0.0055 ± 0.06 | -0.0205 ± 0.0078 | -0.102 ± 0.019 | -0.028 ± 0.0099 | -0.0325 ± 0.0035 | 0.0205 ± 0.023 | -0.0165 ± 0.016 | 0.009 ± 0.042
KF3CT:CD54/ICAM-1 | -0.004 ± 0.0014 | 0.008 ± 0.03 | 0.0135 ± 0.037 | 0 | 0.0015 ± 0.005 | 0.011 ± 0.0057 | 0 ± 0.0057 | 0.01 | 0.0065 ± 0.015 | -0.0135 ± 0.0092 | -0.0015 ± 0.0021 | 0.004 ± 0.0028 | 0.0415 ± 0.0078 | 0.002 ± 0.0028 | -0.005 ± 0.0028 | 0.008 ± 0.0071 | 0.016 ± 0.016 | -0.0145 ± 0.00071 | -0.002
KF3CT:CXCL8/IL-8 | 0.011 ± 0.021 | 0.0125 ± 0.028 | 0.016 ± 0.018 | -0.0205 ± 0.035 | -0.0295 ± 0.029 | -0.014 ± 0.0085 | -0.0015 ± 0.0078 | 0.0025 ± 0.033 | 0.026 ± 0.025 | -0.0125 ± 0.011 | 0.0095 ± 0.0092 | 0.0475 ± 0.03 | -0.0975 ± 0.012 | -0.0935 ± 0.0064 | 0.012 ± 0.013 | -0.009 ± 0.0085 | 0.0045 ± 0.013 | -0.0035 ± 0.033 | 0.011 ± 0.0057
KF3CT:CXCL9/MIG | 0.001 ± 0.011 | 0.006 ± 0.0085 | 0.0015 ± 0.0092 | 0 ± 0.0057 | 0.0005 ± 0.018 | -0.005 ± 0.0099 | -0.0035 ± 0.0092 | 0.0065 ± 0.0078 | 0.017 ± 0.0099 | -0.007 ± 0.0071 | -0.005 ± 0.017 | -0.0095 ± 0.021 | 0.004 ± 0.0085 | -0.032 ± 0.013 | 0 ± 0.0099 | 0.0015 ± 0.0021 | 0.0055 ± 0.022 | -0.002 ± 0.0042 | -0.0015 ± 0.011
KF3CT:CXCL10/IP-10 | 0.0025 ± 0.005 | -0.001 ± 0.0028 | 0.004 ± 0.0028 | -0.0045 ± 0.00071 | -0.0075 ± 0.011 | -0.003 | 0.0045 ± 0.011 | 0.0095 ± 0.022 | 0.029 ± 0.0085 | -0.022 ± 0.033 | 0.004 ± 0.014 | 0.019 ± 0.0085 | -0.0395 ± 0.022 | -0.107 ± 0.015 | 0.008 ± 0.0042 | -0.005 ± 0.0014 | -0.002 ± 0.0028 | -0.001 ± 0.018 | -0.0135 ± 0.005
KF3CT:IL-1alpha | -0.029 ± 0.045 | -0.013 ± 0.014 | 0.013 ± 0.023 | -0.0225 ± 0.0035 | -0.001 ± 0.013 | -0.0095 ± 0.0021 | 0.0075 ± 0.00071 | -0.0065 ± 0.013 | 0.02 ± 0.013 | -0.013 ± 0.05 | -0.0035 ± 0.052 | -0.04 ± 0.038 | 0.006 ± 0.028 | -0.111 | -0.0085 ± 0.012 | 0.006 ± 0.062 | 0.019 ± 0.058 | -0.0455 ± 0.013 | -0.0075 ± 0.057
KF3CT:MMP-9 | -0.0005 ± 0.00071 | 0.0085 ± 0.011 | 0.0265 ± 0.0078 | 0.0085 ± 0.0092 | 0.0025 ± 0.0035 | 0.0065 ± 0.005 | -0.0105 ± 0.012 | 0 ± 0.0042 | 0.007 ± 0.0085 | -0.0405 ± 0.012 | -0.053 ± 0.035 | -0.0105 ± 0.032 | 0.01 ± 0.0085 | -0.0875 ± 0.015 | -0.01 ± 0.021 | -0.0185 ± 0.019 | 0.0005 ± 0.013 | -0.0395 ± 0.028 | -0.029 ± 0.018
KF3CT:PAI-I | -0.015 ± 0.0028 | -0.0095 ± 0.0078 | -0.002 ± 0.0099 | -0.0025 ± 0.005 | -0.001 ± 0.0014 | 0.003 ± 0.014 | -0.0145 ± 0.025 | -0.0125 ± 0.00071 | 0.003 ± 0.018 | 0.0095 ± 0.07 | 0.021 ± 0.0071 | -0.006 ± 0.1 | -0.0995 ± 0.011 | -0.193 ± 0.014 | -0.0055 ± 0.0078 | -0.019 ± 0.0014 | 0 | 0.0215 ± 0.00071 | 0.018 ± 0.013
KF3CT:SRB | -0.002 ± 0.0057 | -0.0025 ± 0.0021 | 0.0075 ± 0.023 | -0.01 ± 0.011 | -0.0065 ± 0.013 | 0.0065 ± 0.035 | -0.0185 ± 0.011 | -0.0185 ± 0.0092 | 0.0015 ± 0.012 | 0.005 ± 0.0071 | -0.005 ± 0.0028 | -0.003 | -0.015 | -0.0305 ± 0.0092 | -0.008 ± 0.0042 | -0.0005 ± 0.00071 | 0.006 ± 0.018 | -0.011 ± 0.018 | -0.0235 ± 0.005
KF3CT:TIMP-2 | 0.0025 ± 0.005 | 0.005 ± 0.0014 | 0.0065 ± 0.0092 | -0.013 | -0.01 ± 0.018 | -0.017 ± 0.013 | -0.0075 ± 0.042 | -0.0015 ± 0.04 | 0.0055 ± 0.011 | 0.014 ± 0.062 | -0.0115 ± 0.0092 | 0.0275 ± 0.012 | 0.0855 ± 0.037 | 0.04 ± 0.0028 | -0.005 ± 0.014 | -0.009 ± 0.0071 | -0.002 ± 0.0014 | -0.021 ± 0.021 | -0.0205 ± 0.032
KF3CT:uPA | -0.0045 ± 0.0092 | -0.011 ± 0.0085 | 0.0005 ± 0.021 | -0.017 ± 0.0028 | -0.0135 ± 0.0078 | -0.0225 ± 0.019 | 0.0005 ± 0.0078 | 0 ± 0.0071 | 0.012 ± 0.0014 | -0.0085 ± 0.022 | 0.032 ± 0.027 | 0.0045 ± 0.021 | 0.022 ± 0.0028 | -0.0225 ± 0.0021 | -0.017 ± 0.017 | -0.018 ± 0.0099 | 0.005 ± 0.02 | -0.0185 ± 0.0035 | -0.0185 ± 0.028
MyoF:CD106/VCAM-1 | 0.0075 ± 0.019 | -0.009 ± 0.0071 | -0.0045 ± 0.015 | -0.007 ± 0.0085 | -0.0295 ± 0.011 | 0.002 ± 0.013 | -0.022 ± 0.016 | 0.0025 ± 0.005 | 0.0005 ± 0.019 | -0.02 ± 0.013 | -0.027 ± 0.016 | 0.0035 ± 0.016 | -0.0675 ± 0.0064 | -0.534 ± 0.053 | -0.013 ± 0.0028 | -0.007 ± 0.0014 | -0.0075 ± 0.015 | 0.006 ± 0.0042 | 0.0075 ± 0.018
MyoF:CXCL8/IL-8 | 0.006 ± 0.11 | 0.0205 ± 0.088 | 0.0365 ± 0.069 | 0.0025 ± 0.021 | -0.0095 ± 0.0035 | -0.002 ± 0.023 | -0.0025 ± 0.023 | -0.012 ± 0.0085 | 0.034 ± 0.045 | -0.0055 ± 0.029 | -0.004 ± 0.085 | 0.022 ± 0.075 | -0.193 ± 0.011 | -0.12 ± 0.022 | -0.03 ± 0.1 | -0.0355 ± 0.073 | 0.025 ± 0.024 | -0.028 ± 0.014 | 0.0085 ± 0.035
MyoF:Collagen I | 0.0045 ± 0.021 | -0.0165 ± 0.052 | -0.015 ± 0.04 | 0.012 ± 0.014 | -0.016 ± 0.0042 | 0.013 ± 0.021 | 0.0015 ± 0.015 | -0.005 ± 0.0099 | 0.002 ± 0.011 | -0.0205 ± 0.011 | -0.0075 ± 0.026 | 0.0255 ± 0.047 | 0.042 ± 0.0028 | -0.155 ± 0.029 | 0.0075 ± 0.011 | 0.005 ± 0.042 | 0.0025 ± 0.012 | -0.0145 ± 0.016 | -0.005 ± 0.0028
MyoF:Collagen III | -0.0225 ± 0.015 | 0.001 | -0.012 ± 0.028 | -0.007 ± 0.0057 | 0.003 ± 0.014 | 0.01 | 0.0035 ± 0.0078 | -0.005 ± 0.017 | 0.0065 ± 0.015 | 0.0165 ± 0.012 | 0.0135 ± 0.016 | 0.0385 ± 0.015 | -0.0045 ± 0.022 | -0.228 ± 0.17 | -0.0155 ± 0.016 | 0.0025 ± 0.011 | -0.0145 ± 0.025 | -0.02 ± 0.0071 | -0.0115 ± 0.012
